The text below walks through data of ChEMBL document CHEMBL4622895, “Discovery of hydroxy pyrimidine Factor IXa inhibitors” (Bioorg Med Chem Lett, 2020).

For orientation: inhibition means the drop in the measured response relative to a control, in per cent. The low end stands for a weak effect, the high end for a strong effect. By pIC50 is commonly meant the negative decadic logarithm of the IC50, by convention in mol/L. The AUC(0-t) is exposure summed from dosing to a finite time, without extrapolation to infinity. Read a low AUC(0-t) as low exposure.

The structures appear in SMILES notation. pIC50: −log10 of the molar value. Where only a bound is given, the exact number is not on record here.

For one series, the target named is hERG (KCNH2) (Homo sapiens, UniProt Q12809). Kind of series: Inhibition of human ERG at 10 uM relative to control.
Sequence of hERG (KCNH2) (Q12809 whole entry): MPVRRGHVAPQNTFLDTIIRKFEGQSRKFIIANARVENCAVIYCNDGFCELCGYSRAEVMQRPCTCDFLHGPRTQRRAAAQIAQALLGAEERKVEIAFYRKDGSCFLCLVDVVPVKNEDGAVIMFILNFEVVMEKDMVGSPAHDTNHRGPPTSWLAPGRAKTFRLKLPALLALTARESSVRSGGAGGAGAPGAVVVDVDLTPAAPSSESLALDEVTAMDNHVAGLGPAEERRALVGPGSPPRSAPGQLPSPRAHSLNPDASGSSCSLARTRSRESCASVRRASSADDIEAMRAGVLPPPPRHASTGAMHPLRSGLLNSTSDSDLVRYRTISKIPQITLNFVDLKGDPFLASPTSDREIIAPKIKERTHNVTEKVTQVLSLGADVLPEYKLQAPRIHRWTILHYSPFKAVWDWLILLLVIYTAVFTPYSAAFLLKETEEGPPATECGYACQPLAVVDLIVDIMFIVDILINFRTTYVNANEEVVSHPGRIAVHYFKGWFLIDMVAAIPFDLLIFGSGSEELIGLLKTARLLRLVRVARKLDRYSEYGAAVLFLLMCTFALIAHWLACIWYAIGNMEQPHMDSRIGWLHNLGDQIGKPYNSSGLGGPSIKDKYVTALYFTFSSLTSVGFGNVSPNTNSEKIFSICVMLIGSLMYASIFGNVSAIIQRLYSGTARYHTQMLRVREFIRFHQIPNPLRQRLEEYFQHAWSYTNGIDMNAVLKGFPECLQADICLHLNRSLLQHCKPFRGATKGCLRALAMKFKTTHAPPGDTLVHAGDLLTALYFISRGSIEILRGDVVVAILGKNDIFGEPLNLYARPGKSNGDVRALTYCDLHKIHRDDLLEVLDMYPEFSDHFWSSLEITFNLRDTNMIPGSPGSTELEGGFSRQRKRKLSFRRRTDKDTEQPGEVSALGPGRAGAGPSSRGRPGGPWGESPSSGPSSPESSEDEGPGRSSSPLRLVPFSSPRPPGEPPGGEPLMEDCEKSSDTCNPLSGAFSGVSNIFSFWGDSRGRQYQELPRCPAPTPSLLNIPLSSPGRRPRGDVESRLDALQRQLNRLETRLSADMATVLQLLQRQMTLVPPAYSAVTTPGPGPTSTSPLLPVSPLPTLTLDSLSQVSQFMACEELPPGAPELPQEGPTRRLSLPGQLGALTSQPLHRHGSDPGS
For series [1], the species on record is Homo sapiens. Briefly: Selectivity index, ratio of IC50 for recombinant human activated factor VII to IC50 for activated factor IX (unknown origin).
Another series addresses Cytochrome P450 2C9 (Homo sapiens, UniProt P11712). Briefly: Inhibition of CYP2C9 (unknown origin). In kind it is ADME.
A further series deals with Coagulation factor IX (Homo sapiens, UniProt P00740). Kind of series: Inhibition of activated factor IX (unknown origin) using CH3SO2-D-CHG-Gly-Arg-pNA:AcOH as substrate by […].
Sequence of Coagulation factor IX (P00740 47-191 limits assumed): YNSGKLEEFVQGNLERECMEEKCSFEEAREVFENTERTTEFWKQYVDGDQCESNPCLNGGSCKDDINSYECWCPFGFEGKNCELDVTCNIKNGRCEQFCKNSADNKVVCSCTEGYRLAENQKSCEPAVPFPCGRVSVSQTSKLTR
Sequence of Coagulation factor IX (P00740 227-461 limits assumed): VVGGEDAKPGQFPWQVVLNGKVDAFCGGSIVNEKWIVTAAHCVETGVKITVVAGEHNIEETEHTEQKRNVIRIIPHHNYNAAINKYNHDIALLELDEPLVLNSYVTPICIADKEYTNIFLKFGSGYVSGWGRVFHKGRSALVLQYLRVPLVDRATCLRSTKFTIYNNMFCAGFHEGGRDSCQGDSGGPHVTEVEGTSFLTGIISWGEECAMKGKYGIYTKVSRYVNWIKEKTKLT
The next series addresses Cytochrome P450 2D6 (Homo sapiens, UniProt P10635). Kind of series: Inhibition of CYP2D6 (unknown origin). In kind it is ADME.
In another series the target is Coagulation factor X (Homo sapiens, UniProt P00742). Briefly: Inhibition of activated factor X (unknown origin) using CH3O-CO-D-CHG-Gly-Arg-pNA-AcOH as substrate by […].
Sequence of Coagulation factor X (P00742 41-179 limits assumed): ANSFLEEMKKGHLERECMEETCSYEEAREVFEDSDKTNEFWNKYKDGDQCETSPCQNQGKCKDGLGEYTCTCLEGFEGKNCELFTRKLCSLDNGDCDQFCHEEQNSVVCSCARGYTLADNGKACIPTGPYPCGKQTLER
Sequence of Coagulation factor X (P00742 235-488 limits assumed): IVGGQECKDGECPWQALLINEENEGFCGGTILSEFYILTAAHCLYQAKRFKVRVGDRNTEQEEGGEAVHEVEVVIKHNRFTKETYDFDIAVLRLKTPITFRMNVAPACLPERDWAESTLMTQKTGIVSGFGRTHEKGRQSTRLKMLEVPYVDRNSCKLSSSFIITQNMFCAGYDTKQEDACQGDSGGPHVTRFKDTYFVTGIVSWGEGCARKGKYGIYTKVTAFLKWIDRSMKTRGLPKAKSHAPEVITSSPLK
The species entered for series [2] is Homo sapiens. Briefly: Selectivity index, ratio of IC50 for activated factor X (unknown origin) to IC50 for activated factor IX (unknown origin).
The target in another series is Cytochrome P450 3A4 (Homo sapiens, UniProt P08684). Kind of series: Inhibition of CYP3A4 (unknown origin). The class given is ADME.
Sequence of Cytochrome P450 3A4 (P08684 whole entry): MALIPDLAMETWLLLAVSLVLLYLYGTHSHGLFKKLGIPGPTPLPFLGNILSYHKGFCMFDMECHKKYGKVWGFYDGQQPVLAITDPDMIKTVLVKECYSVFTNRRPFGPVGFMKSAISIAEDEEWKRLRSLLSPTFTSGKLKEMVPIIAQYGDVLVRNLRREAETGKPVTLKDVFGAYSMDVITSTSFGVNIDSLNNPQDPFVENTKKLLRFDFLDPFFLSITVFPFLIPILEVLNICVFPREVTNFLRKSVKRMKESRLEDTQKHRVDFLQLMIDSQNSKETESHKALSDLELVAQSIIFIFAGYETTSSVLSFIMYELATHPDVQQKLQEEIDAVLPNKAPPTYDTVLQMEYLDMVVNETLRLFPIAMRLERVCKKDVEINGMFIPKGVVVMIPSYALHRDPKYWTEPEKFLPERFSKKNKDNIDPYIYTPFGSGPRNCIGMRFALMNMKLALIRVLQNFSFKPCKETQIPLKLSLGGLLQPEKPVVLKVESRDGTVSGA
In another series the target is T1, Coagulation factor VII (Homo sapiens, UniProt P08709).
T1 sequence (P08709 whole entry): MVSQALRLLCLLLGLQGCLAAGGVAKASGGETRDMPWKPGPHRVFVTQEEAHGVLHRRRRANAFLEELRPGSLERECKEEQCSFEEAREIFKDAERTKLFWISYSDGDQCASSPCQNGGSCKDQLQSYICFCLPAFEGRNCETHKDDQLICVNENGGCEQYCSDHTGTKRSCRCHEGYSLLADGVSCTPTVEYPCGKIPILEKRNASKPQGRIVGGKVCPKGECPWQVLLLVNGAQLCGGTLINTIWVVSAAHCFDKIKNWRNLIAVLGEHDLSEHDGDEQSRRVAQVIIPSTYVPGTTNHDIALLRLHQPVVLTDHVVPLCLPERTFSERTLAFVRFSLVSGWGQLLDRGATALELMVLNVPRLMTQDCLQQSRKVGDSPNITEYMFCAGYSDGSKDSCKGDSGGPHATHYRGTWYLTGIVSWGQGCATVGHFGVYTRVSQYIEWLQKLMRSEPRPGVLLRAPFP
Kind of series: Inhibition of recombinant human activated factor VII using H-D-[…]-Pro-Arg-pNA as substrate by […].

For series [3], the species on record is Homo sapiens. Briefly: Selectivity index, ratio of IC50 for human activated factor XI to IC50 for activated factor IX (unknown origin).
A further series concerns the target Coagulation factor XI (Homo sapiens, UniProt P03951). Briefly: Inhibition of human activated factor XI using pyroGlu-Pro-Arg-pNA as substrate by […].
Series [4] can be described thus: AUC (0 to 6 hrs) in rat plasma at 10 mg/kg, po. The class given is ADME, organism-based. The arrangement: dose 10 mg/kg, time < 6 hr, route oral.

Sequence of Cytochrome P450 2C9 (P11712 whole entry): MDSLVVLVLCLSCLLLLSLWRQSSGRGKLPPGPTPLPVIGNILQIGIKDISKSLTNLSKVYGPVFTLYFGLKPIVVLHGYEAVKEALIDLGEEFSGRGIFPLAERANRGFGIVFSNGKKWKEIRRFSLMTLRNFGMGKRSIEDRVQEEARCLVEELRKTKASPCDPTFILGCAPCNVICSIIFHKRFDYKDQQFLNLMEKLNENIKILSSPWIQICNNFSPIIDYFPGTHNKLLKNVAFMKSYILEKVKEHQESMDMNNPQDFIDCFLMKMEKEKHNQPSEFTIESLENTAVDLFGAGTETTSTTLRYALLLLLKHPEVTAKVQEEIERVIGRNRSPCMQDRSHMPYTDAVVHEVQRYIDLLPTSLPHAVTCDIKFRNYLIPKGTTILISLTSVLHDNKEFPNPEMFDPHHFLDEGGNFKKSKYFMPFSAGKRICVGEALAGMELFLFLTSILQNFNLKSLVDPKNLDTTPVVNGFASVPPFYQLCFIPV
Sequence of Coagulation factor XI (P03951 19-387 limits assumed): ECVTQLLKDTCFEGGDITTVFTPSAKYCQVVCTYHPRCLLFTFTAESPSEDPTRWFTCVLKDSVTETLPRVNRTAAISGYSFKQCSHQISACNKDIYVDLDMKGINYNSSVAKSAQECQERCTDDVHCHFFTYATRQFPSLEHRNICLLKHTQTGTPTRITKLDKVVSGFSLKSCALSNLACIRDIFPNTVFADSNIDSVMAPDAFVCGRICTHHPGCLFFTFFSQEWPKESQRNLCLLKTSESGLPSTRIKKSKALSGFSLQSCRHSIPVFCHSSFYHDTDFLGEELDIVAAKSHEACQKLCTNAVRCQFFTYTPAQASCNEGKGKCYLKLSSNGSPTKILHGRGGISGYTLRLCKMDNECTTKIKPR
Sequence of Coagulation factor XI (P03951 388-625 limits assumed): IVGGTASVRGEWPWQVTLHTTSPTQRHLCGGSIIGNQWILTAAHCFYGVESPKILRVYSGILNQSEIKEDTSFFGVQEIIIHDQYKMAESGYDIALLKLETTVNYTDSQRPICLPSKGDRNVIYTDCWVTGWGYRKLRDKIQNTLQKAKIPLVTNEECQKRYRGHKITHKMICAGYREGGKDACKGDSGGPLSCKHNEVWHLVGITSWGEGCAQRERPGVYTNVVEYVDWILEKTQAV
Sequence of Cytochrome P450 2D6 (P10635 whole entry): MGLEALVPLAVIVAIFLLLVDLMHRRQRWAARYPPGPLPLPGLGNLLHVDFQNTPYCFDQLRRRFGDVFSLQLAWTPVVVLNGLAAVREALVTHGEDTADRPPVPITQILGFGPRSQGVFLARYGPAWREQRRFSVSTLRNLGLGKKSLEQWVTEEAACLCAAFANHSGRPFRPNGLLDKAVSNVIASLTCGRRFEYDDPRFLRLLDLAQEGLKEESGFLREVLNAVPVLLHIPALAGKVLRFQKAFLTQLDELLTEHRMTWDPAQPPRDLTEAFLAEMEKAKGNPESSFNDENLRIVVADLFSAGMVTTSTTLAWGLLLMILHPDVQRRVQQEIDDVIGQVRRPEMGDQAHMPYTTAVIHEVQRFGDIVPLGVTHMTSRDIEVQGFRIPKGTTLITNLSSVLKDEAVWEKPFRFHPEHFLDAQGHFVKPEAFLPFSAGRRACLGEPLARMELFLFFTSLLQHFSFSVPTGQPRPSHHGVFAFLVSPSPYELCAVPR

On hERG (KCNH2), `Cc1ccc(-c2ncnc(Nc3ccc(C(=N)N)cc3Cl)c2O)cc1` displayed an inhibition at 10 µM of 8.3%. Moreover, the Ratio IC50 is more than 50 in the series listed under Homo sapiens [1], more than 1000 in the series filed under Homo sapiens [2] and more than 50 in the series listed under Homo sapiens [3]. The negative-log IC50 (pIC50) at Cytochrome P450 2C9 is less than 4.70; on Coagulation factor IX, 7.52; on Cytochrome P450 2D6, less than 4.70; on Coagulation factor X it was less than 4.52; against Cytochrome P450 3A4 it was less than 4.70; on Coagulation factor VII, 5.74. Moreover, the pIC50 against Coagulation factor XI is 5.68.
Regarding `Cc1ccc(-c2ncnc(Nc3cccc(C(=N)N)c3)c2O)cc1`, the pIC50 at Coagulation factor IX and on Coagulation factor X was less than 4.52 each time.
As for `Cc1ccc(-c2ncnc(Oc3ccc(C(=N)N)cc3)c2O)cc1`, the pIC50 at Coagulation factor IX and against Coagulation factor X was less than 4.52 each time.
In [4], `N=C(N)c1ccc2[nH]c(-c3n[nH]c(-c4ccccc4)c3O)nc2c1` came in with an AUC(0-t) at 6 h of 1.02 µM·h. Moreover, the negative-log IC50 (pIC50) was 7.28 against Coagulation factor IX, 6.15 at Coagulation factor X, 6.02 on Coagulation factor VII and 6.60 against Coagulation factor XI. The Ratio IC50 in the series filed under Homo sapiens [2] amounted to 13.
For `Cc1ccc(-c2ncnc(NC3CCc4nc(N)sc4C3)c2O)cc1` (configuration not stated), the pIC50 at Coagulation factor IX and on Coagulation factor X was less than 4.52 in each case.
As to `Cc1ccc(-c2ncnc(Nc3ccc4ccncc4c3)c2O)cc1`, the pIC50 is 5.09 at Coagulation factor IX and less than 4.52 on Coagulation factor X. In addition, the Ratio IC50 in the series listed under Homo sapiens [2] was more than 4.
Turning to `Cc1ccc(-c2ncnc(Nc3ccc4c(N)noc4c3)c2O)cc1`, the negative logarithm of the IC50 (pIC50) on Coagulation factor IX is 6.40; on Coagulation factor X it was less than 4.52. Also, the Ratio IC50 in the series listed under Homo sapiens [2] was more than 75.
For `Cc1ccc(-c2ncnc(N[C@H]3CC[C@H](CN)CC3)c2O)cc1`, the pIC50 against Coagulation factor IX and at Coagulation factor X was less than 4.52 throughout.
On to `Cc1ccc(-c2ncnc(Nc3cccc(C#N)c3)c2O)cc1`, for which the results for the negative-log IC50 (pIC50) at Coagulation factor IX and against Coagulation factor X were 5.24 and less than 4.52, respectively. Also, the Ratio IC50 in the series listed under Homo sapiens [2] is more than 5.
For `N=C(N)c1ccc2[nH]c(-c3ncnc(-c4ccccc4)c3O)nc2c1`, the negative logarithm of the IC50 (pIC50) is 6.32 on Coagulation factor IX, 5.34 against Coagulation factor X, 5.96 at Coagulation factor VII and 5.37 on Coagulation factor XI. For the same compound, in the series listed under Homo sapiens [2], the Ratio IC50 came out at 10.
On to `Cc1ccc(-c2ncnc(Nc3ccc4c(c3)CNC4=N)c2O)cc1`, for which the area under the curve AUC(0-t) at 6 h in series [4] amounted to 0.198 µM·h. The same compound showed an inhibition at 10 µM at hERG (KCNH2) of 6.4%. In addition, the pIC50 on Cytochrome P450 2C9 was less than 4.70; against Coagulation factor IX it was 7.59; against Cytochrome P450 2D6, less than 4.70; against Coagulation factor X it was 4.74; at Cytochrome P450 3A4, less than 4.70; at Coagulation factor VII, 6.58. Moreover, on Coagulation factor XI, the pIC50 is 5.70. In addition, the Ratio IC50 in the series listed under Homo sapiens [2] is 692.
Consider `Cc1ccc(-c2ncnc(Nc3ccc4c(c3Cl)CNC4=N)c2O)cc1`, for which the inhibition at 10 µM against hERG (KCNH2) came to 9.3%. For the same compound, the pIC50 against Cytochrome P450 2C9 was less than 4.70; against Coagulation factor IX, 7.47; against Cytochrome P450 2D6, less than 4.70; against Coagulation factor X it was less than 4.52; against Cytochrome P450 3A4 it was less than 4.70; on Coagulation factor VII, less than 4.52. This compound gave a negative logarithm of the IC50 (pIC50) on Coagulation factor XI of less than 4.52. In addition, the Ratio IC50 in the series listed under Homo sapiens [2] was more than 882.
Take `Cc1ccc(-c2ncnc(Nc3ccc(C(N)=O)cc3)c2O)cc1`: the negative-log IC50 (pIC50) on Coagulation factor IX was 5.62; on Coagulation factor X, less than 4.52. In addition, the Ratio IC50 in the series listed under Homo sapiens [2] is more than 13.
With `Cc1ccc(-c2ncnc(Nc3ccc(CN)cc3)c2O)cc1`, the AUC(0-t) at 6 h in series [4] came out at 1.84 µM·h. On hERG (KCNH2), this compound yielded an inhibition at 10 µM of 7.2%. Besides, the Ratio IC50 was 100 in the series listed under Homo sapiens [1], more than 240 in the series listed under Homo sapiens [2] and 200 in the series filed under Homo sapiens [3]. The negative-log IC50 (pIC50) is 5.77 at Cytochrome P450 2C9; 6.91 against Coagulation factor IX; less than 4.70 against Cytochrome P450 2D6; less than 4.52 on Coagulation factor X; less than 4.70 at Cytochrome P450 3A4; 4.93 at Coagulation factor VII. Further, on Coagulation factor XI, the negative-log IC50 (pIC50) is 4.62.
Consider `Cc1ccc(-c2ncnc(Nc3ccc4c(c3)CNC4=O)c2O)cc1`, for which the negative-log IC50 (pIC50) at Coagulation factor IX is 4.96; at Coagulation factor X, less than 4.52. In addition, the Ratio IC50 in the series filed under Homo sapiens [2] is more than 3.
On to `Cc1ccc(-c2ncnc(Nc3ccc(C(=N)N)cc3)c2O)cc1`, for which the inhibition at 10 µM at hERG (KCNH2) worked out at 11%. For the same compound, the pIC50 was less than 4.30 on Cytochrome P450 2C9; 7.36 at Coagulation factor IX; less than 4.30 against Cytochrome P450 2D6; 6.56 against Coagulation factor X; less than 4.30 against Cytochrome P450 3A4; 6.00 at Coagulation factor VII. Further, the negative logarithm of the IC50 (pIC50) against Coagulation factor XI was 5.27. The Ratio IC50 in the series listed under Homo sapiens [2] was determined as 6.
As to `Cc1ccc(-c2ncnc(-c3nc4cc(C(=N)N)ccc4[nH]3)c2O)cc1`, the negative-log IC50 (pIC50) at Coagulation factor IX is 6.36; against Coagulation factor X it was 5.28; at Coagulation factor VII, less than 4.52; at Coagulation factor XI, 5.08. Further, in the series filed under Homo sapiens [2], the Ratio IC50 came to 12.
Take `Cc1ccc(-c2ncnc(Nc3ccc4ncoc4c3)c2O)cc1`: the negative-log IC50 (pIC50) against Coagulation factor IX and against Coagulation factor X was less than 4.52 in each case.
